Results published in patent US12533417B2, “L-DOPA and/or DOPA decarboxylse inhibitors conjugated to sugar for the treatment of dopamine-responsive disorders” (B. G. Negev Technologies and Applications Ltd., at …, priority 2018, dated 2026).
Each block holds one compound with its values, some of them ahead of it.

What was measured:
[1] = Pharmacokinetic of L-DOPA following intravenous administration of L-DOPA and L-DOPAM-2 to mice; type: in vivo; settings: for L-DOPA in the plasma: equivalent to 80 mg/kg L-DOPA, 4 and 8 hours after injection, no DOPA decarboxylase inhibitor
Description: In order to analyze the stability of DOPAM-2 in vivo, mice were injected intravenously with either L-DOPAM-2 or L-DOPA, where in either case, an equimolar dose of L-DOPA was administered (equivalent to 80 mg/kg L-DOPA). Mice were sacrificed 30, 60, 120, 240, and 480 minutes after the injection of the tested drug, blood was collected and plasma obtained by centrifugation. L-DOPA concentration was determined by LC-MS. 3 mice were tested per each time point, and each point on the graph represents mean±SEM.

[2] = Release of L-DOPA from L-DOPAM-1 and L-DOPAM-4 in human serum in vitro (Example 5); type: in vitro ADME; settings: 37° C., L-DOPA concentration by LC-MS (FIG. 13)
Description: (§1) The stability of one molecule of L-DOPA and one Mannitol (L-DOPAM-1, M.W. 361) in serum was evaluated according to the following procedure: • 1. A solution of 2 mg L-DOPAM in lml of serum was prepared; • 2. A 200 μl aliquot was immediately withdrawn from that solution; • 3. 180 μl of TCA (trichloroacetic acid) 0.6N solution was added; • 4. The obtained mixture was centrifuged (5,000 rpm, 15 min., 40° C.); • 5. The supernatant was filtrated through 0.22 μm filter; • 6. The filtrate was diluted 20 times and injected into Liquid chromatography-mass spectrometry (LC-MS) (column: LUNA 3u C18 (2) 100A; 150×1.0 mm). The eluents were A=Acetonitrile, B=H2O+0.1% Acetic Acid. The following LC gradient was used: […]
The stability of one molecule of L-DOPA and one of mannitol (L-DOPAM-1), and of four molecules of L-DOPA and one of mannitol (L-DOPAM-4) in serum was evaluated by the method disclosed in Example 4. L-DOPAM-1 and L-DOPAM-4 were added into human serum and incubated at 37° C. Samples were taken at various times after the addition of the drugs to the serum and L-DOPA concentration was determined by LC-MS.

[3] = L-DOPA concentration in human serum after adding DOPAM, HPLC-MS with internal standard; type: in vitro ADME
Description: HPLC-MS area under the curve were examined after addition of various L-DOPA concentrations to serum (FIG. 10). […] DOPAM was added to human serum in vitro, and L-DOPA concentrations in serum at various timepoints were determined by HPLC-MS and quantified using an internal standard. DOPAM released L-DOPA continuously over at least 24 hours (FIG. 12). The concentration of L-DOPA in serum increased in a linear fashion during the first 6 hours after adding DOPAM to the serum, after which L-DOPA concentration continued to increase through the final time point examined in this experiment (24 hours after DOPAM addition; FIG. 12).

[4] = Stability of L-DOPAM in serum, LC-MS peak areas (Example 4); type: in vitro ADME, human; settings: for Area L-DOPA (LC-MS peak area) / Area L-DOPAM (LC-MS peak area) / Area Mannitol (LC-MS peak area): L-DOPAM 2 mg/ml in serum, 36° C.
Description: as §1
The L-DOPAM solution in serum was stored at 36° C. Steps 2-6 were repeated after 2, 4, 23 and 46.5 hours.
The areas of the L-DOPAM, L-DOPA and Mannitol peaks were determined by extraction of only the ions of interest (FIGS. 3-7). The L-DOPA metabolite dopamine was not detected.
In order to semi-quantitatively determine the stability of L-DOPAM, the ratio of the peak areas of L-DOPA versus L-DOPAM and Mannitol versus L-DOPAM was calculated. An increase of the ratio of L-DOPA and Mannitol over time indicates the breakdown of L-DOPAM in serum.

L-DOPA in the plasma [1]: significant levels of L-DOPA
plasma concentrations of L-DOPA compared with mice injected with L-DOPA ([1]; equivalent to 80 mg/kg L-DOPA, 60, 120, 240, and 480 minutes after injection): higher
Structure (SMILES): NC(Cc1ccc(O)c(O)c1)C(=O)OCC(OC(=O)C(N)Cc1ccc(O)c(O)c1)C(O)C(O)C(O)CO (centres unmarked) [DOPAM-2]

course of levels after the increase [2]: gradual decrease at 24 and 48 hours
time up to which levels increased [2]: 8 h
time over which L-DOPA was released continuously ([3]; DOPAM added to human serum in vitro, 37° C. (FIG. 12)): at least 24 hours
period of linear increase of L-DOPA concentration in serum ([3]; after adding DOPAM to human serum (FIG. 12)): 6 h
time L-DOPA present in serum [3]: at least 24 hours
L-DOPAM detection in serum ([4]; 46 h after exposure of L-DOPAM to serum): still detected
Area L-DOPA (LC-MS peak area) ([4]; time 0 h): 1019288083
Area L-DOPAM (LC-MS peak area) ([4]; time 0 h): 4065363001
Area Mannitol (LC-MS peak area) ([4]; time 0 h): 60908307
Area L-DOPA (LC-MS peak area) ([4]; time 2 h): 2345301782
Area L-DOPAM (LC-MS peak area) ([4]; time 2 h): 3292402130
Area Mannitol (LC-MS peak area) ([4]; time 2 h): 65437168
Area L-DOPA (LC-MS peak area) ([4]; time 4 h): 2632498093
Area L-DOPAM (LC-MS peak area) ([4]; time 4 h): 2146859775
Area Mannitol (LC-MS peak area) ([4]; time 4 h): 97930402
Area L-DOPA (LC-MS peak area) ([4]; time 23 h): 1539342894
Area L-DOPAM (LC-MS peak area) ([4]; time 23 h): 498391022
Area Mannitol (LC-MS peak area) ([4]; time 23 h): 73274763
Area L-DOPA (LC-MS peak area) ([4]; time 46.5 h): 26308871
Area L-DOPAM (LC-MS peak area) ([4]; time 46.5 h): 460814075
Area Mannitol (LC-MS peak area) ([4]; time 46.5 h): 83932712
Mannitol levels ([4]; L-DOPAM in serum (FIG. 9)): increased over time
L-DOPA metabolite dopamine detected ([4]; L-DOPAM in serum, 0-46.5 h, LC-MS): not detected
Ratio L-DOPA/L-DOPAM (peak areas) ([4]; L-DOPAM in serum, time 0 h): 0.251
Ratio Mannitol/L-DOPAM (peak areas) ([4]; L-DOPAM in serum, time 0 h): 0.015
Ratio L-DOPA/L-DOPAM (peak areas) ([4]; L-DOPAM in serum, time 2 h): 0.712
Ratio Mannitol/L-DOPAM (peak areas) ([4]; L-DOPAM in serum, time 2 h): 0.020
Ratio L-DOPA/L-DOPAM (peak areas) ([4]; L-DOPAM in serum, time 4 h): 1.226
Ratio Mannitol/L-DOPAM (peak areas) ([4]; L-DOPAM in serum, time 4 h): 0.046
Ratio L-DOPA/L-DOPAM (peak areas) ([4]; L-DOPAM in serum, time 23 h): 3.089
Ratio Mannitol/L-DOPAM (peak areas) ([4]; L-DOPAM in serum, time 23 h): 0.147
Ratio L-DOPA/L-DOPAM (peak areas) ([4]; L-DOPAM in serum, time 46.5 h): 0.057
Ratio Mannitol/L-DOPAM (peak areas) ([4]; L-DOPAM in serum, time 46.5 h): 0.182
time up to which L-DOPA levels increased ([4]; L-DOPAM in serum, sharp decrease at the 46 h time point (FIG. 8)): 23 h
Structure (SMILES): NC(Cc1ccc(O)c(O)c1)C(=O)OC(CO)C(O)C(O)C(O)CO [L-DOPAM-1]

time up to which levels increased [2]: 24 h
time up to which levels increased linearly [2]: 5 h
Structure (SMILES): NC(Cc1ccc(O)c(O)c1)C(=O)OCC(OC(=O)C(N)Cc1ccc(O)c(O)c1)C(O)C(O)C(COC(=O)C(N)Cc1ccc(O)c(O)c1)OC(=O)C(N)Cc1ccc(O)c(O)c1 [L-DOPAM-4]
course of levels after the increase [2]: decreased slightly through the final time point examined after 72 hours

time L-DOPA present in serum [3]: about 2 hours
L-DOPA in the plasma [1]: no L-DOPA was detected
Structure (SMILES): N[C@@H](Cc1ccc(O)c(O)c1)C(=O)O [L-DOPA]
